According to ChEMBL document CHEMBL1132134, “The LMC delta opioid recognition pharmacophore: comparison of SNC80 and oxymorphindole” (Bioorg Med Chem Lett, 1999):

Experiments:
[1] = target: Delta-type opioid receptor (Rattus norvegicus, UniProt P33533); experiment: Binding affinity evaluated by inhibition of binding of [3H]DADLE to delta opioid receptor of rat brain
[2] = target: Opioid receptors; mu & delta (Rattus norvegicus) (UniProt P33533+P33535); experiment: Selectivity ratio against mu opioid receptor to that of delta opioid receptor; format: protein assay
Opioid receptors; mu & delta (Rattus norvegicus), sequence (P33533 whole entry, looked up): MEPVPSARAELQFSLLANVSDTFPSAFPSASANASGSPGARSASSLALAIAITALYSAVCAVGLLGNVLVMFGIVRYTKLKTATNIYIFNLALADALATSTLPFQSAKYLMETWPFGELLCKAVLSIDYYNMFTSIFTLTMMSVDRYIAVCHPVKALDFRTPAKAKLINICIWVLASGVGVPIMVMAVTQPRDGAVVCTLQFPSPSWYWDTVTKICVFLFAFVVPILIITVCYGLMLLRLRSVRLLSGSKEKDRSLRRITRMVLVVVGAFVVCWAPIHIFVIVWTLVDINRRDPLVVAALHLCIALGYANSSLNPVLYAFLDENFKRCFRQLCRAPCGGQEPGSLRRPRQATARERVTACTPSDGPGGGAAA
Opioid receptors; mu & delta (Rattus norvegicus), sequence (P33535 whole entry, looked up): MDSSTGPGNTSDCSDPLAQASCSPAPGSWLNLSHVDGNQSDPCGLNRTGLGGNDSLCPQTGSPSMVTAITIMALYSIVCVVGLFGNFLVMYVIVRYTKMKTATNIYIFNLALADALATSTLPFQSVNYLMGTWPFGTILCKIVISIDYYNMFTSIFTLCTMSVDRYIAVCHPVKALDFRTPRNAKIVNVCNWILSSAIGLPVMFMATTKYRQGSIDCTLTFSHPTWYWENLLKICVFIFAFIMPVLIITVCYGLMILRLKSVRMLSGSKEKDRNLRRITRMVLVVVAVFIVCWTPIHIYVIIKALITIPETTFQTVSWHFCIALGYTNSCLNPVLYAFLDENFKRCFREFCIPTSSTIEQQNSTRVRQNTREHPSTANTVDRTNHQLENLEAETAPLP

Delta-type opioid receptor, sequence (P33533 whole entry): as the sequence (P33533 whole entry, looked up) above

SMILES | Ki [1] [µM] | Selectivity [2]
O=C1/C(=C\c2ccccc2)C[C@@]2(O)[C@H]3Cc4ccc(O)c5c4[C@@]2(CCN3CC2CC2)[C@H]1O5 | 0.0037 | 8.6
O=C1/C(=C/c2ccccc2)C[C@@]2(O)[C@H]3Cc4ccc(O)c5c4[C@@]2(CCN3CC2CC2)[C@H]1O5 [BNTX] | 0.0062 | 4
O=C1/C(=C/c2cccc3ccccc23)C[C@@]2(O)C3Cc4ccc(O)c5c4C2(CCN3CC2CC2)C1O5 (stereo not given in full) | 0.0046 | 7.5
O=C1/C(=C/c2c3ccccc3cc3ccccc23)C[C@@]2(O)C3Cc4ccc(O)c5c4C2(CCN3CC2CC2)C1O5 (stereo not given in full) | 0.017 | 6.4
O=C1/C(=C\c2cccc3ccccc23)C[C@@]2(O)C3Cc4ccc(O)c5c4C2(CCN3CC2CC2)C1O5 (stereo not given in full) | 0.0007 | 15
O=C1/C(=C/c2ccc(-c3ccccc3)cc2)C[C@@]2(O)C3Cc4ccc(O)c5c4C2(CCN3CC2CC2)C1O5 (stereo not given in full) | 0.075 | 0.6
O=C1/C(=C\c2c3ccccc3cc3ccccc23)C[C@@]2(O)C3Cc4ccc(O)c5c4C2(CCN3CC2CC2)C1O5 (stereo not given in full) | 0.0024 | 14
O=C1/C(=C\c2ccc(-c3ccccc3)cc2)C[C@@]2(O)C3Cc4ccc(O)c5c4C2(CCN3CC2CC2)C1O5 (stereo not given in full) | 0.047 | 4.2
O=C1/C(=C\c2ccc3ccccc3c2)C[C@@]2(O)C3Cc4ccc(O)c5c4C2(CCN3CC2CC2)C1O5 (stereo not given in full) | 0.016 | 3
O=C1/C(=C/c2ccc3ccccc3c2)C[C@@]2(O)C3Cc4ccc(O)c5c4C2(CCN3CC2CC2)C1O5 (stereo not given in full) | 0.039 | 0.6
